# Assay results as given in patent publication US10947201B2, “Certain chemical entities, compositions, and methods” (NEUPHARMA, INC., priority 2015, dated 2021).
# Tests used:
# [1] = test system: H1975 cells; assay: MTT cell growth inhibition assay, H1975; assay type: cell-based; conditions: Homo sapiens, NCI-H1975, H1975 cells (EGFR L858R/T790M), 72 h
# Method: (§1) Inhibition of cell growth by compounds was measured using MTT assay (Mosmann, T., Journal of Immunological Methods, 1983, 65, 55-63). Tumor cell lines were purchased from ATCC (American Type Culture Collection, Manassas, Va.). All cell lines were maintained in RPMI 1640 (Hyclone) supplemented with 10% fetal bovine serum (FBS, Hyclone), glutamine (2 mM, Hyclone), and antibiotics (penicillin 100 U/mL and streptomycin 50 μg/mL) at 37° C. in a humidified atmosphere of 5% CO2 in air. Taxol (as a positive control, Sigma) and compounds were dissolved in DMSO (Sigma), and the final concentration of DMSO in the medium was 1%. Tumor cells were plated in 96-well plates at densities of about 4000 cells/well of a 96-well plate and allowed to adhere/grow for 24 h. They were then treated with various concentrations of drug for 72 h. 3-(4,5-Dimethylthiazol-2-yl)-2,5-diphenyltetrazolium bromide (MTT, Sigma) was used to determine the number of viable cells at the time of compound addition and the number of cells remaining after 72 h compound exposure. The number of cells remaining after 72 h was compared to the number of viable cells at the time of compound addition by measuring the absorbance at 570 nm, allowing for the calculation of growth inhibition.
# (§2) All concentrations of compounds were tested in triplicate and controls were averaged over 4 wells. IC50 was calculated by plotting the concentration of compound vs the percentage of inhibition in treated wells using GraphPad Prism 5.
# (§3) Tables 5 show IC50 values of several compounds of the invention in A549, A431, H1299, and H1975 human cancer cells. A549 cells have a mutation on KRAS, H3255 cells have L858R mutation, and H1975 cells have double EGFR mutations (L858R/T790M). The scale utilized in Table 5 is as follows: +++ less than 100 nM; ++ between 100 nM and 500 nM; and + greater than 500 nM.
# [2] = target: T1, BTK (Homo sapiens, UniProt Q06187); assay: Z'-LYTE kinase inhibition assay (Invitrogen), BTK; assay type: biochemical; conditions: for inhibition at 0.1 µM: compound at 100 nM, [ATP] = Km; for inhibition at 0.041 µM: compound at 41 nM, 10 μM of ATP
# T1 construct: purchased Invitrogen
# T1 sequence (Q06187 whole entry): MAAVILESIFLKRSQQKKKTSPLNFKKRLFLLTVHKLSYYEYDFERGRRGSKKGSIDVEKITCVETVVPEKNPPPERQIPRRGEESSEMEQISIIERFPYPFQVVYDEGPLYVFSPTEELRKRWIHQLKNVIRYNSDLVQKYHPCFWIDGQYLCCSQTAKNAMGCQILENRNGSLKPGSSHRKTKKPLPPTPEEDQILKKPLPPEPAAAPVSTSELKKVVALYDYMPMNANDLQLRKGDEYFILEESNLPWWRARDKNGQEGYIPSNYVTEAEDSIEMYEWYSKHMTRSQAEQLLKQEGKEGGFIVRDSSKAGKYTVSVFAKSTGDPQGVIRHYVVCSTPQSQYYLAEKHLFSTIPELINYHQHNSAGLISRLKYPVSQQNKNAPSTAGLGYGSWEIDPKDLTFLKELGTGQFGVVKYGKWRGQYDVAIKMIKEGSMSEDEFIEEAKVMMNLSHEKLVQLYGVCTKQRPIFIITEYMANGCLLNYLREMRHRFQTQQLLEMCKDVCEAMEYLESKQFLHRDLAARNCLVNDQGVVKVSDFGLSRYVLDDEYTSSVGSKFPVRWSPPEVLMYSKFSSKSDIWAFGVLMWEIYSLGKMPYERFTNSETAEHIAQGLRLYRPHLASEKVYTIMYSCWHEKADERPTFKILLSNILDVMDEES
# Method: (§4) Inhibitory activities of compounds against BTK, EGFR and EGFR mutants (EGFR L858R/T790M) were measured by Invitrogen using Z′-LYTE® Method as briefly described in the following.
# (§5) Test Compounds are screened in 1% DMSO (final) in the well. For 10 point titrations, 3-fold serial dilutions are conducted from the starting concentration. All ATP Solutions are diluted to a 4× working concentration in Kinase Buffer (50 mM HEPES pH 7.5, 0.01% BRIJ-35, 10 mM MgCl2, 1 mM EGTA). Peptide/Kinase Mixtures are diluted to a 2× working concentration in the appropriate Kinase Buffers as described below.
# (v) Peptide/Kinase Mixtures for measurement of BTK:
# The 2×BTK/Tyr 01 mixture is prepared in 50 mM HEPES pH 7.5, 0.01% BRIJ-35, 10 mM MgCl2, 1 mM EGTA. The final 10 μL Kinase Reaction consists of 1.04-10.4 ng BTK and 2 μM Tyr 01 in 50 mM HEPES pH 7.5, 0.01% BRIJ-35, 10 mM MgCl2, 1 mM EGTA. After the 1 hour Kinase Reaction incubation, 5 μL of a 1:256 dilution of Development Reagent B is added.
# (§6) Reaction starts by 30-second shaking of mixture consisting of 2.5 μL 4× test compound, 5 μL 2× kinase reaction mixture and 2.5 μL 4×ATP Solution on Bar-coded Corning, low volume NBS, black 384-well plate (Corning Cat. #3676). Then the mixture is incubated for 60-minute at room temperature for the kinase reaction, followed by addition of 5 μL of a 1:1024 dilution of development reagent A and 30-second plate shake. The mixture is then incubated for another 60-minute at room temperature for development reaction. Finally fluorescence is read by plate reader. […] The scale utilized in Tables 2 and 3 is as follows: ++ more than 50% inhibition and + less than 50% inhibition.
# (§7) To determine IC50 of a compound against EGFR or EGFR mutants, a series of concentrations of the compound were tested for the inhibition. IC50 was calculated by plotting the concentration of compound vs the percentage of inhibition in treated wells using GraphPad Prism 5. […] The scale utilized in Table 4 is as follows: ++ less than 100 nM and + greater than 100 nM.
# [3] = target: T2, EGFR (ErbB1) T790M L858R (Homo sapiens, UniProt P00533, L858R/T790M); assay: Z'-LYTE kinase inhibition assay (Invitrogen), EGFR L858R/T790M; assay type: biochemical; conditions: for inhibition at 0.0137 µM: compound at 13.7 nM, 10 μM of ATP; for inhibition at 0.1 µM: compound at 100 nM, [ATP] = Km
# T2 construct: purchased Invitrogen
# T2 sequence (P00533 25-1210 T790M/L858R): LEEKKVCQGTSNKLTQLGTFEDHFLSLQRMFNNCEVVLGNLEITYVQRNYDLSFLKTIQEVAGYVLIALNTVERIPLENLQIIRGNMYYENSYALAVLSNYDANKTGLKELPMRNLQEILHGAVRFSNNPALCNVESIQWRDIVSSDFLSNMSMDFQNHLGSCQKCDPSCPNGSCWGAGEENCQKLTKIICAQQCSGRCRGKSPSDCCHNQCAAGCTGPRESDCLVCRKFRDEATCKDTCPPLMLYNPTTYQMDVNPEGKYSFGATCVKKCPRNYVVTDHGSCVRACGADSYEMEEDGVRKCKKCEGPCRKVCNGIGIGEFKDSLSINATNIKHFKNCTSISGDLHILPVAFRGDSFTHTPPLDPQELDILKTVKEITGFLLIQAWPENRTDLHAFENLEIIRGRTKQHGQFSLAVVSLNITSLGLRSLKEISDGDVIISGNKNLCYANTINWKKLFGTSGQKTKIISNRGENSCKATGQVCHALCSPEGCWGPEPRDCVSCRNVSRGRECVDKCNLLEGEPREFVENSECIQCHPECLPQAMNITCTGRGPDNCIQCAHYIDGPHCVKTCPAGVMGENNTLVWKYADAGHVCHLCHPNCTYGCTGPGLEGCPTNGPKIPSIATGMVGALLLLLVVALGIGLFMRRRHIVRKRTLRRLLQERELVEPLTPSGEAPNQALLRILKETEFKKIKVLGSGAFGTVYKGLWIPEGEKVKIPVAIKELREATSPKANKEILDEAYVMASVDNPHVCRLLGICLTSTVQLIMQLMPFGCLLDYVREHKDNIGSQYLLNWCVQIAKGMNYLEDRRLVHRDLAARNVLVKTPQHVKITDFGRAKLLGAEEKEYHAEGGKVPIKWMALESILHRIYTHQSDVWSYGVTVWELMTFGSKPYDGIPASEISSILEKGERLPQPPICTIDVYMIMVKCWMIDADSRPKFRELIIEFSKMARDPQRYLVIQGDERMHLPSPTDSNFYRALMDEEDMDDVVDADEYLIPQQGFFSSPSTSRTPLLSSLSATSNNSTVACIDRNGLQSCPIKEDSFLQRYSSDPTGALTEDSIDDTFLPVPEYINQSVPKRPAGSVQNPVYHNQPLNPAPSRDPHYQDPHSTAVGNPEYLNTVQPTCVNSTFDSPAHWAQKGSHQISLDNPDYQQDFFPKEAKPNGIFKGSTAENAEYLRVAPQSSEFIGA
# Method: as §4, §5
# (iv) Peptide/Kinase Mixtures for measurement of EGFR (ErbB1) T790M L858R:
# The 2×EGFR (ErbB1) T790M L858R/Tyr 04 mixture is prepared in 50 mM HEPES pH 6.5, 0.01% BRIJ-35, 10 mM MgCl2, 1 mM EGTA, 0.02% NaN3. The final 10 μL Kinase Reaction consists of 0.38-4.22 ng EGFR (ErbB1) T790M L858R and 2 μM Tyr 04 in 50 mM HEPES pH 7.0, 0.01% BRIJ-35, 10 mM MgCl2, 1 mM EGTA, 0.01% NaN3. After the 1 hour Kinase Reaction incubation, 5 μL of a 1:64 dilution of Development Reagent B is added.
# as §6, §7
# [4] = target: T3, EGFR (ErbB1) (Homo sapiens, UniProt P00533); assay: Z'-LYTE kinase inhibition assay (Invitrogen), EGFR; assay type: biochemical; conditions: for inhibition at 0.041 µM: compound at 41 nM, 10 μM of ATP; for inhibition at 0.1 µM: compound at 100 nM, [ATP] = Km
# T3 construct: purchased Invitrogen
# T3 sequence (P00533 25-1210): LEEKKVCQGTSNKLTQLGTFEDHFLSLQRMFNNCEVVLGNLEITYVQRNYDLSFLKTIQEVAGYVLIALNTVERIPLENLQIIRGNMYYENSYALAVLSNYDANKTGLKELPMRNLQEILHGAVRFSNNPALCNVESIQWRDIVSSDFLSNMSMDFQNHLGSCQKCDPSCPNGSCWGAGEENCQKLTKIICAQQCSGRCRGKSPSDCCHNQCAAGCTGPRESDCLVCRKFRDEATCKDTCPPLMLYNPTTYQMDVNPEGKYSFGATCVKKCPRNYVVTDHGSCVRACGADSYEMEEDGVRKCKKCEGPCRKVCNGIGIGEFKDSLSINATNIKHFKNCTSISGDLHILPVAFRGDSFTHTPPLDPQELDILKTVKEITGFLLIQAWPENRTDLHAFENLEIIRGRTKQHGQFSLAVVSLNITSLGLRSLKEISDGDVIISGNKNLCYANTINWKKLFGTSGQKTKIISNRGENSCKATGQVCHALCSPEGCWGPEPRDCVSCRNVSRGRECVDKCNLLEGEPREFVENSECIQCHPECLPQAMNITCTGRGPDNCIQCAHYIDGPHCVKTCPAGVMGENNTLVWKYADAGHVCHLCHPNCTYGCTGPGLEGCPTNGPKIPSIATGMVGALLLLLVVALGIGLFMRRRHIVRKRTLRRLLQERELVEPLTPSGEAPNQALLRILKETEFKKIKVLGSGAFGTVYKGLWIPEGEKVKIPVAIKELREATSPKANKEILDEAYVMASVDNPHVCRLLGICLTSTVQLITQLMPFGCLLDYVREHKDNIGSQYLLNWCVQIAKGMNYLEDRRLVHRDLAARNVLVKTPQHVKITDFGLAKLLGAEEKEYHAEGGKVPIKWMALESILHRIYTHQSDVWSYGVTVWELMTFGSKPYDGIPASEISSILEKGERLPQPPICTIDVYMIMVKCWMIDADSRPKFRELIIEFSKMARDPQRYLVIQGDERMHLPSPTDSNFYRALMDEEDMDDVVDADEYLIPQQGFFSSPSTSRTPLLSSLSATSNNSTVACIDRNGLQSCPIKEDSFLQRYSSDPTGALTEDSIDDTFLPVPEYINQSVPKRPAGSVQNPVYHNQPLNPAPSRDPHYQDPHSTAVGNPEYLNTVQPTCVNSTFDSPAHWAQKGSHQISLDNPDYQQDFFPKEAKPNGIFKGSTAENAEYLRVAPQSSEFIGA
# Method: as §4, §5
# (i) Peptide/Kinase Mixtures for measurement of EGFR (ErbB1):
# The 2×EGFR (ErbB1)/Tyr 04 mixture is prepared in 50 mM HEPES pH 7.5, 0.01% BRIJ-35, 10 mM MgCl2, 4 mM MnCl2, 1 mM EGTA, 2 mMDTT. The final 10 μL Kinase Reaction consists of 1.1-5.25 ng EGFR (ErbB1) and 2 μM Tyr 04 in 50 mM HEPES pH 7.5, 0.01% BRIJ-35, 10 mM MgCl2, 2 mM MnCl2, 1 mM EGTA, 1 mM DTT. After the 1 hour Kinase Reaction incubation, 5 μL of a 1:64 dilution of DevelopmentReagent B is added.
# as §6, §7
# [5] = test system: A549 cells; assay: MTT cell growth inhibition assay, A549; assay type: cell-based; conditions: Homo sapiens, A549 cells (KRAS mutation), 72 h
# Method: as §1, §2, §3
SMILES,IC50 [1] [nM],inhibition at 0.1 µM [2] [%],inhibition at 0.0137 µM [3] [%],inhibition at 0.1 µM [3] [%],inhibition at 0.041 µM [4] [%],inhibition at 0.1 µM [4] [%],inhibition at 0.041 µM [2] [%],IC50 [5] [nM],IC50 [2] [nM],IC50 [3] [nM],IC50 [4] [nM]
"C=CC(=O)Nc1cc(Nc2ncc3cccc(-c4ccccc4Cl)c3n2)ccc1N(C)CCN(C)C [Example C008, N-(5-((8-(2-chlorophenyl)quinazolin-2-yl)amino)-2-((2-(dimethylamino)ethyl)(methyl)amino)phenyl) acrylamide]",100 to 500,> 50,> 50,< 50,< 50,< 50,> 50,100 to 500,,,
"C=CC(=O)Nc1cc(Nc2ncc3cccc(-c4cccc(Cl)c4)c3n2)ccc1OC1CCN(C)CC1 [Example C013, N-(5-((8-(3-chlorophenyl)quinazolin-2-yl)amino)-2-((1-methylpiperidin-4-yl)oxy)phenyl)acrylamide]",100 to 500,> 50,> 50,< 50,< 50,< 50,,,,,
"C=CC(=O)Nc1cc(Nc2ncc3cccc(-c4cccc(Cl)c4)c3n2)ccc1OCCN(C)C [Example C012, N-(5-((8-(3-chlorophenyl)quinazolin-2-yl)amino)-2-(2-(dimethylamino)ethoxy)phenyl)acrylamide]",< 100,> 50,> 50,< 50,< 50,< 50,,,,,
"C=CC(=O)Nc1cc(Nc2ncc3cccc(-c4ccccc4Cl)c3n2)ccc1OCCN(C)C [Example C014, N-(5-((8-(2-chlorophenyl)quinazolin-2-yl)amino)-2-(2-(dimethylamino)ethoxy)phenyl)acrylamide]",< 100,> 50,< 50,< 50,< 50,< 50,,,,,
C=CC(=O)Nc1cc(Nc2ncc3cccc(-c4cncc(Cl)c4)c3n2)ccc1N(C)CCN(C)C [Example C021],< 100,> 50,,> 50,,< 50,,,,,
"C=CC(=O)Nc1cc(Nc2ncc3cccc(-c4cccc(Cl)c4)c3n2)ccc1OCCOC [Example C015, N-(5-((8-(3-chlorophenyl)quinazolin-2-yl)amino)-2-(2-methoxyethoxy)phenyl)acrylamide]",> 500,< 50,< 50,< 50,< 50,< 50,,,,,
"C=CC(=O)Nc1cc(Nc2ncc3cccc(-c4cccnc4)c3n2)ccc1N(C)CCN(C)C [Example C010, N-(2-((2-(dimethylamino)ethyl)(methyl)amino)-5-((8-(pyridin-3-yl)quinazolin-2-yl)amino)phenyl)acrylamide]",100 to 500,> 50,< 50,< 50,< 50,< 50,> 50,,,,
"C=CC(=O)Nc1cc(Nc2ncc3cccc(Br)c3n2)ccc1N(C)CCN(C)C [Example C001, N-(5-((8-bromoquinazolin-2-yl)amino)-2-((2-(dimethylamino)ethyl)(methyl)amino)phenyl) acrylamide]",< 100,,< 50,,,,,,,,
"C=CC(=O)N1CCCC(n2cnc3cnc(Nc4ccc(N5CCN(C)CC5)c(F)c4)nc32)C1 (stereo not drawn) [Example A009, 1-(3-(2-((3-fluoro-4-(4-methylpiperazin-1-yl)phenyl)amino)-9H-purin-9-yl)piperidin-1 yl)prop-2-en-1-one]",,> 50,,,,,,,< 100,> 100,> 100

# The next lines start with the values.
IC50 [1] [nM],inhibition at 0.1 µM [2] [%],inhibition at 0.0137 µM [3] [%],inhibition at 0.1 µM [3] [%],inhibition at 0.041 µM [4] [%],inhibition at 0.1 µM [4] [%],inhibition at 0.041 µM [2] [%],IC50 [5] [nM],IC50 [2] [nM],IC50 [3] [nM],IC50 [4] [nM],SMILES
< 100,< 50,< 50,< 50,< 50,< 50,,,,,,"C=CC(=O)Nc1cc(Nc2ncc3cccc(-c4cccc(Cl)c4)c3n2)ccc1N1CCOCC1 [Example C016, N-(5-((8-(3-chlorophenyl)quinazolin-2-yl)amino)-2-morpholinophenyl)acrylamide]"
< 100,> 50,< 50,< 50,< 50,< 50,> 50,,,,,"C=CC(=O)Nc1cc(Nc2ncc3cccc(-c4ccncc4)c3n2)ccc1N(C)CCN(C)C [Example C007, N-(2-((2-(dimethylamino)ethyl)(methyl)amino)-5-((8-(pyridin-4-yl)quinazolin-2-yl)amino)phenyl)acrylamide]"
< 100,> 50,< 50,< 50,< 50,< 50,,,,,,"C=CC(=O)Nc1cc(Nc2ncc3cccc(-c4cccc(Cl)c4)c3n2)ccc1N1CCN(C)CC1 [Example C011, N-(5-((8-(3-chlorophenyl)quinazolin-2-yl)amino)-2-(4-methylpiperazin-1-yl)phenyl)acrylamide]"
< 100,> 50,> 50,< 50,< 50,< 50,> 50,,,,,"C=CC(=O)Nc1cc(Nc2ncc3cccc(-c4ccccc4F)c3n2)ccc1N(C)CCN(C)C [Example C009, N-(2-((2-(dimethylamino)ethyl)(methyl)amino)-5-((8-(2-fluorophenyl)quinazolin-2-yl)amino)phenyl)acrylamide]"
